Test results from article PMC11286589, “Population pharmacokinetics and exposure–response analyses of SAF-189s in Chinese patients with ALK+/ROS1+ non-small cell lung cancer” (Frontiers in Pharmacology, 2024).

System: ALK+/ROS1+ advanced NSCLC
Assay: Phase I/II study (SAF001, NCT04237805): tumor response, IRC, RECIST 1.1
Assay type: in vivo, human
Description: A first-in-human phase I/II study (NCT04237805) enrolled patients with advanced ALK+/ROS1+ NSCLC with or without asymptomatic CNS metastases. […] The population PK analysis included data from one phase I study of SAF-189s conducted with healthy subjects (study STL31147; n = 24) and one phase I/II study conducted with Chinese patients having ALK+/ROS1+ advanced NSCLC (study SAF001; n = 299). STL31147 was a single-center, randomized, open-label, two-period (fed and fasting), and two-sequence crossover study on healthy Chinese adults. The volunteers received SAF-189s at a dose of 160 mg orally once in each period, with a washout period of 14 days. Blood samples (3 mL) were collected after each SAF-189s administration at 0 (predose), 1, 2, 3, 4, 6, 8, 10, 12, 24, 48, 72, 120, and 168 h post dosing. SAF001 was a multicenter, open-label, and single-arm phase I/II study to evaluate the safety, tolerability, pharmacokinetics, and antitumor activity of SAF-189s in patients with advanced ALK+ NSCLC (phase I) and ALK+/ROS1+ NSCLC (phase II). In the dose escalation portion, the study treatment included a single-agent 3-day PK run-in period and a continuous treatment period. The dosing regimens were 20, 40, 80, 120, 160, and 210 mg QD for 21 days in 21-day cycles during the continuous treatment period. In phase II, the patients received 80, 120, 160, and 210 mg of SAF-189s (phase IIa) or 160 mg (phase IIb) QD over 21-day cycles. All studies were conducted in accordance with the Good Clinical Practice guidelines and Declaration of Helsinki. The protocols were approved by the independent ethics committee of each investigation site, and all subjects provided informed consent. The tumor responses were assessed by the IRC based on the Response Evaluation Criteria in Solid Tumors (RECIST) 1.1 conditions. The exposure–efficacy analyses of SAF-189s were conducted based on data from patients in the SAF001 study to explore the relationships between systemic exposure and efficacy endpoints, including the ORR, PFS, and duration of response (DOR). The exposure–safety analyses of SAF-189s were conducted based on data from patients in the SAF001 study to explore the relationships between the systemic exposure and safety endpoints, including the adverse events (AEs) of interest. In these studies, the SAF-189s plasma concentrations were analyzed using validated liquid chromatography tandem mass spectrometry within the assay range of 0.5–150 ng mL^–1.

Cc1cc(Nc2ncc(Cl)c(Nc3ccccc3S(=O)(=O)C(C)C)n2)c2c(c1C1CCN(C)CC1)C[C@@H](C)O2 [SAF-189s]
ORR (160-mg dose group, ROS1+ treatment-naive patients (n = 59)): 89.83%
ORR (ALK+ and ROS1+ patients (n = 244)): 78.69%
ORR (ROS1+ treatment-naive subgroup (n = 68)): 91.18%
ORR (ROS1+ treatment-resistant patients (n = 32)): 40.62%
